The target of the assay is CDK2 (UniProt P24941). Put plainly: Enzyme Assay.
As for `CC(C)C(N)C(=O)OCCN1CCN(NC(=O)Nc2cccc3c2C(=O)c2c-3n[nH]c2-c2ccc(OCCN3CCCC3)cc2)CC1` (configuration not stated), the IC50 (usually the concentration needed to halve the response being measured) was < 100 nM.
With `CC(C)N1CCN(CCOc2ccc(-c3n[nH]c4c3C(=O)c3c(NC(=O)NN5CCOCC5)cccc3-4)cc2F)CC1` the figure was < 10 nM; with `CC(C)c1nn(-c2c(Cl)cc(Cl)cc2Cl)c2nc(Cc3ccc(CN4CCN(C(C)C)CC4)n3C)[nH]c(=O)c12`, < 100 nM.
Consider `CC(C)c1nn(-c2c(Cl)cc(Cl)cc2Cl)c2nc(Cc3ccc(CNC(CO)CO)n3C)[nH]c(=O)c12`, for which the concentration for half-maximal inhibition (IC50) is < 10 nM.
Consider `CN(C)C(=O)COc1ccc(-c2[nH]nc3c2C(=O)c2c(NC(=O)NN4CCOCC4)cccc2-3)cc1`, for which the IC50 was < 10 nM.
With `O=C(Nc1cccc2c1C(=O)c1c(-c3ccc(CN4CCOCC4)cc3)n[nH]c1-2)NN1CCOCC1` the figure was < 100 nM; with `Cc1noc(COc2ccc(-c3[nH]nc4c3C(=O)c3c(NC(=O)NN5CCN(C)CC5)cccc3-4)cc2)n1`, < 100 nM; with `CC(C)c1nn(-c2c(Cl)cccc2Cl)c2nc(Cc3ccc(OCCN4CCOCC4)cc3)[nH]c(=O)c12`, < 10 nM.
For `Cc1cc(OCCN2CCCC2)ccc1-c1[nH]nc2c1C(=O)c1c(NC(=O)NN3CCN(C)CC3)cccc1-2` the value was < 100 nM; for `CC(C)c1nn(-c2c(Cl)cc(Cl)cc2Cl)c2nc(Cc3ccc(NS(=O)(=O)CCCN4CCCCC4)cc3)[nH]c(=O)c12`, < 100 nM; for `COCCOc1ccc(Cc2nc3c(c(C(C)C)nn3-c3c(Cl)cccc3Cl)c(=O)[nH]2)cc1`, < 100 nM.
For `Cc1cc(OCCN2CCN(C(C)C)CC2)ccc1-c1[nH]nc2c1C(=O)c1c(NC(=O)NN3CCN(C)CC3)cccc1-2` the value was < 100 nM; for `CN1CCN(NC(=O)Nc2cccc3c2C(=O)c2c(-c4ccc(OCCN5CCCC5)cc4F)n[nH]c2-3)CC1`, < 100 nM.
In the case of `O=C(Nc1cccc2c1C(=O)c1c(-c3ccc(CN4CCN(CCO)CC4)cc3)n[nH]c1-2)NN1CCOCC1`, the IC50 is < 100 nM.
Regarding `Cc1cc(OCCn2cccn2)ccc1-c1[nH]nc2c1C(=O)c1c(NC(=O)NN3CCN(C)CC3)cccc1-2`, the IC50 is < 100 nM.
With `CN1CCN(NC(=O)Nc2cccc3c2C(=O)c2c-3n[nH]c2-c2ccc(O)cc2)CC1` the figure was < 100 nM.
Turning to `CC(C)c1nn(-c2c(Cl)cccc2Cl)c2nc(Cc3ccc(OCCN4CCOCC4)c(O)c3)[nH]c(=O)c12`, the IC50 is < 100 nM.
With `CC(C)OC(=O)CN1CCN(NC(=O)Nc2cccc3c2C(=O)c2c-3n[nH]c2-c2ccc(OCCN3CCCC3)cc2)CC1` the figure was < 100 nM; with `O=C(Nc1cccc2c1C(=O)c1c(-c3ccc(CNCCOCCO)cc3)n[nH]c1-2)NN1CCOCC1`, < 100 nM; with `Cc1nc(Cc2nc3c(c(C(C)C)nn3-c3c(Cl)cccc3Cl)c(=O)[nH]2)cs1`, < 10 nM.
As to `CC(C)N1CCN(Cc2cc(-c3[nH]nc4c3C(=O)c3c(NC(=O)NN5CCOCC5)cccc3-4)ccc2O)CC1`, the IC50 is < 100 nM.
For `O=C(Nc1cccc2c1C(=O)c1c(-c3ccc(CN4CCC(O)CC4)cc3)n[nH]c1-2)NN1CCOCC1` the value was < 100 nM; for `CC(C)c1nn(-c2c(Cl)cccc2Cl)c2nc(Cc3ccc(OCCOP(=O)(O)O)cc3)[nH]c(=O)c12`, < 100 nM; for `CN1CCN(NC(=O)Nc2cccc3c2C(=O)c2c-3n[nH]c2-c2ccc(OCCN3CCC[C@H]3CO)cc2)CC1`, < 100 nM.
Consider `Cc1noc(COc2ccc(-c3[nH]nc4c3C(=O)c3c(NC(=O)NN5CCOCC5)cccc3-4)cc2)n1`, for which the half-inhibitory concentration (IC50) is < 100 nM.
For `CC(C)c1nn(-c2c(Cl)cccc2Cl)c2nc(Cc3ccc(NS(=O)(=O)CCCN4CCOCC4)cc3)[nH]c(=O)c12` the value was < 100 nM; for `Cc1cc(OCCCN2CCN(C(C)C)CC2)ccc1-c1[nH]nc2c1C(=O)c1c(NC(=O)NN3CCOCC3)cccc1-2`, < 10 nM; for `COCCN1CCN(Cc2ccc(-c3[nH]nc4c3C(=O)c3c(NC(=O)NN5CCOCC5)cccc3-4)cc2)CC1`, < 10 nM.
In the case of `O=C(Nc1cccc2c1C(=O)c1c(-c3ccc(CN4CCCC4)cc3)n[nH]c1-2)NN1CCOCC1`, the IC50 is < 100 nM.
For `CC(C)c1nn(-c2c(Cl)cc(Cl)cc2Cl)c2nc(Cc3ccc(CN4CCCC4)n3C)[nH]c(=O)c12` the value was < 100 nM.
For `CN1CCN(NC(=O)Nc2cccc3c2C(=O)c2c-3n[nH]c2-c2ccc(OCCN(CCO)CCO)cc2)CC1` the value was < 100 nM; for `Cc1cc(-c2[nH]nc3c2C(=O)c2c(NC(=O)NN4CCOCC4)cccc2-3)ccc1OCCN1CCCC1`, < 100 nM.
Regarding `CC(C)c1nn(-c2c(Cl)cccc2Cl)c2nc(Cc3ccc(CN4CCN(C(C)C)CC4)c(O)c3)[nH]c(=O)c12`, the IC50 was < 100 nM.
On to `CC(C)c1nn(-c2c(Cl)cccc2Cl)c2nc(Cc3ccc(C(=O)NOCCN4CCOCC4)cc3)[nH]c(=O)c12`, for which the IC50 is < 100 nM.
With `COc1cc(-c2[nH]nc3c2C(=O)c2c(NC(=O)NN4CCOCC4)cccc2-3)ccc1OCCN1CCCC1` the figure was < 100 nM; with `CC(C)N1CCN(CCCOc2ccc(-c3[nH]nc4c3C(=O)c3c(NC(=O)NN5CCOCC5)cccc3-4)cc2)CC1`, < 10 nM.
With `O=C(Nc1cccc2c1C(=O)c1c(-c3ccc(OCc4nnn[nH]4)cc3)n[nH]c1-2)NN1CCOCC1` the figure was < 100 nM; with `CC(C)c1nn(-c2c(Cl)cc(S(N)(=O)=O)cc2Cl)c2nc(Cc3ccc(OCCN4CCOCC4)cc3)[nH]c(=O)c12`, < 10 nM.
For `CC(C)c1nn(-c2c(Cl)cc(Cl)cc2Cl)c2nc(Cc3ccc(NS(=O)(=O)CCCN4CCCC4)cc3)[nH]c(=O)c12` the value was < 100 nM.
Regarding `CC(C)c1nn(-c2c(Cl)cccc2Cl)c2nc(Cc3ccc(O)c(CN4CCOCC4)c3)[nH]c(=O)c12`, the IC50 is < 100 nM.
For `O=C(Nc1cccc2c1C(=O)c1c(-c3ccc(CN4CCN(c5cccc(C(F)(F)F)c5)CC4)cc3)n[nH]c1-2)NN1CCOCC1` the value was < 100 nM.
As to `CN1CCN(NC(=O)Nc2cccc3c2C(=O)c2c-3n[nH]c2-c2ccc(OCC(=O)N3CCCC3)cc2)CC1`, the concentration for half-maximal inhibition (IC50) is < 100 nM.
On to `Cc1cc(OCCN2CCCN(C)CC2)ccc1-c1[nH]nc2c1C(=O)c1c(NC(=O)NN3CCN(C)CC3)cccc1-2`, for which the IC50 was < 100 nM.
With `CN1CCN(NC(=O)Nc2cccc3c2C(=O)c2c-3n[nH]c2-c2ccc(OCCN3CC[C@H](O)C3)cc2)CC1` the figure was < 100 nM; with `CN1CCN(NC(=O)Nc2cccc3c2C(=O)c2c-3n[nH]c2-c2ccc(OCCn3cccn3)cc2)CC1`, < 100 nM; with `O=C(O)COc1ccc(-c2n[nH]c3c2C(=O)c2c(NC(=O)NN4CCOCC4)cccc2-3)cc1`, < 10 nM.
For `Cc1cc(OCCN2CCCC2)ccc1-c1[nH]nc2c1C(=O)c1c(NC(=O)NN3CCOCC3)cccc1-2` the value was < 10 nM; for `CC(C)c1nn(-c2c(Cl)cc(Cl)cc2Cl)c2nc(Cc3ccc(OCCO)cc3)[nH]c(=O)c12`, < 100 nM.
For `CCN1CCN(S(=O)(=O)c2cc(Cl)c(-n3nc(C(C)C)c4c(=O)[nH]c(Cc5ccc(OCCN6CCOCC6)cc5)nc43)c(Cl)c2)CC1` the value was < 1000 nM; for `CN1CCN(NC(=O)Nc2cccc3c2C(=O)c2c(-c4ccc(OCCN5CCCC5)c(F)c4)n[nH]c2-3)CC1`, < 100 nM.
In the case of `COc1ccc(Cc2nc3c(c(C(C)C)nn3-c3c(Cl)cccc3Cl)c(=O)[nH]2)cc1`, the 50% inhibitory concentration (IC50) is < 10 nM.
For `CC(C)N1CCN(NC(=O)Nc2cccc3c2C(=O)c2c-3n[nH]c2-c2ccc(OCCN3CCCC3)cc2)CC1`, the concentration for half-maximal inhibition (IC50) was < 10 nM.
As for `Cc1cc(-c2[nH]nc3c2C(=O)c2c(NC(=O)NN4CCN(C)CC4)cccc2-3)ccc1OCCN1CCCC1`, the IC50 was < 100 nM.
For the molecule `O=C(Nc1cccc2c1C(=O)c1c(-c3ccc(CNC(CO)CO)cc3)n[nH]c1-2)NN1CCOCC1`, the concentration for half-maximal inhibition (IC50) was < 10 nM.
With `Cc1cc(OCCN2CCOCC2)ccc1-c1[nH]nc2c1C(=O)c1c(NC(=O)NN3CCN(C)CC3)cccc1-2` the figure was < 100 nM; with `O=C(Nc1cccc2c1C(=O)c1c(-c3ccc(OCCN4CCOCC4)c(F)c3)n[nH]c1-2)NN1CCOCC1`, < 100 nM; with `O=C(Nc1cccc2c1C(=O)c1c-2n[nH]c1-c1ccc(S(=O)(=O)N2CCNCC2)cc1)NN1CCOCC1`, < 100 nM.
On to `O=C(Nc1cccc2c1C(=O)c1c(-c3ccc(CN(CCO)CCO)cc3)n[nH]c1-2)NN1CCOCC1`, for which the half-maximal inhibitory concentration (IC50) is < 100 nM.
With `O=C(Nc1cccc2c1C(=O)c1c(-c3ccc(CN4CCN(c5ccccn5)CC4)cc3)n[nH]c1-2)NN1CCOCC1` the figure was < 100 nM; with `CC(C)c1nn(-c2c(Cl)cccc2Cl)c2nc(Cc3ccc(OCCOC(=O)[C@@H](N)C(C)C)cc3)[nH]c(=O)c12`, < 100 nM.
With `CC(C)N1CCN(S(=O)(=O)c2ccc(-c3[nH]nc4c3C(=O)c3c(NC(=O)NN5CCOCC5)cccc3-4)cc2)CC1` the figure was < 10 nM; with `CCN(CCO)S(=O)(=O)c1cc(Cl)c(-n2nc(C(C)C)c3c(=O)[nH]c(Cc4ccc(OCCN5CCOCC5)cc4)nc32)c(Cl)c1`, < 100 nM; with `Cc1cc(-c2[nH]nc3c2C(=O)c2c(NC(=O)NN4CCOCC4)cccc2-3)ccc1OCCN1CCN(C(C)C)CC1`, < 10 nM.
For `CC(C)c1nn(-c2c(Cl)cc(Cl)cc2Cl)c2nc(Cc3ccc(NS(=O)(=O)CCCN4CCN(C(C)C)CC4)cc3)[nH]c(=O)c12` the value was < 100 nM; for `Cc1cc(-c2[nH]nc3c2C(=O)c2c(NC(=O)NN4CCN(C)CC4)cccc2-3)ccc1OCCN1CCN(C(C)C)CC1`, < 100 nM; for `Cc1cc(OCCN2CCCCC2)ccc1-c1[nH]nc2c1C(=O)c1c(NC(=O)NN3CCN(C)CC3)cccc1-2`, < 100 nM.
For the molecule `O=C(Nc1cccc2c1C(=O)c1c-2n[nH]c1-c1ccc(OCC(=O)N2CCCC2)cc1)NN1CCOCC1`, the IC50 was < 100 nM.
With `O=C(Nc1cccc2c1C(=O)c1c-2n[nH]c1-c1ccc(OP(=O)(O)O)cc1)NN1CCOCC1` the figure was < 100 nM; with `CN1CCN(CCOc2ccc(-c3n[nH]c4c3C(=O)c3c(NC(=O)NN5CCN(C)CC5)cccc3-4)c(F)c2)CC1`, < 100 nM.
With `O=C(Nc1cccc2c1C(=O)c1c(-c3ccc(OCCN4CCOCC4)cc3Cl)n[nH]c1-2)NN1CCOCC1` the figure was < 100 nM; with `CC(C)c1nn(-c2c(Cl)cccc2Cl)c2nc(Cc3ccc(OCC(C)(C)O)cc3)[nH]c(=O)c12`, < 100 nM; with `CC(C)c1nn(-c2c(Cl)cc(Cl)cc2Cl)c2nc(Cc3ccc(OCC(C)(C)O)cc3)[nH]c(=O)c12`, < 100 nM.

(Values after the Kinase Knowledgebase extract (Sharma et al. 2016).)
